The nature of data set [1]: absorption spectrum (maximum absorption wavelength, molar extinction coefficient). It is filed as physicochemical.
Data set [2] is described as follows: singlet oxygen efficiency test, reference rose bengal. The class given is physicochemical.

Where “and” joins values, the source holds several entries; their conditions need not be identical. Equal entries are not always repeated.

As to `COCCOCCOCCOCCOCCOCCOCCN1CCC(CNc2c3c4c5c(c(OC)c(=O)c6c(O)cc(OC)c(c7c(OC)cc(NCC8CCN(CCOCCOCCOCCOCCOCCOCCOC)CC8)c(c2=O)c74)c65)C(C(C)=O)C(C)=C3)CC1` (stereo not drawn) [HB-32c-PEG6], in data set [1], the maximum absorption wavelength turned out to be 632 nm and the molar extinction coefficient is given as 33,500 M^−1cm^−1. Besides, the singlet oxygen yield in data set [2] was 40%.
For the compound `COc1c2c3c4c(c(NCC(=O)O)c(=O)c5c(NCC(=O)O)cc(OC)c(c6c(OC)cc(O)c(c1=O)c63)c54)C=C(C)C2` [HC-7c], in data set [1], the maximum absorption wavelength stood at 630 nm and the molar extinction coefficient is reported as 29,500 M^−1cm^−1. The compound also showed a singlet oxygen yield in data set [2] of 27%.
As for `COc1c(O)c2c(=O)cc(OC)c3c4c(OC)cc(=O)c5c(NCc6cccc[n+]6C)c(NCc6cccc[n+]6C)c6c(c(c1C(C(C)=O)C(C)=C6)c23)c54` (stereo not drawn) [HB-38a-N^+], in data set [1], the maximum absorption wavelength turned out to be 620 nm and the molar extinction coefficient is 22,000 M^−1cm^−1. In data set [2], this compound displayed a singlet oxygen yield of 18%.
For the compound `COc1c(O)c2c(=O)cc(OC)c3c4c(OC)cc(=O)c5c(NCCCC(=O)NCC[N+](C)(C)C)c(NCCCC(=O)NCC[N+](C)(C)C)c6c(c(c1CC(C)=C6)c23)c54` [HC-8a-NH—C2-N^+], in data set [1], the maximum absorption wavelength is 622 nm and the molar extinction coefficient is reported as 30,000 M^−1cm^−1. The singlet oxygen yield in data set [2] turned out to be 29%.
With `COCCOCCOCCOCCOCCOCCOCCOCCOCCOCCOCCOCCOC(=O)CCCNc1c2c3c4c(c(OC)c(=O)c5c(O)cc(OC)c(c6c(OC)cc(NCCCC(=O)OCCOCCOCCOCCOCCOCCOCCOCCOCCOCCOCCOCCOC)c(c1=O)c63)c54)CC(C)=C2` [HC-8c-PEG12], in data set [1], the maximum absorption wavelength is recorded as 628 nm and the molar extinction coefficient is 32,500 M^−1cm^−1. The compound also displayed a singlet oxygen yield in data set [2] of 38%.
The like results for `COc1c2c3c4c(c(NCCCS(=O)(=O)O)c(=O)c5c(NCS(=O)(=O)O)cc(OC)c(c6c(OC)cc(O)c(c1=O)c63)c54)C=C(C)C2` [HC-45c] were, in that order, 627 nm, 22,000 M^−1cm^−1 and 21%.
Regarding `COc1c(NCC2CCC(C(=O)O)CC2)c2c(=O)cc(OC)c3c4c(OC)cc(=O)c5c(O)c(NCC6CCC(C(=O)O)CC6)c6c(c(c1C(C(C)=O)C(C)=C6)c23)c54` (stereo not drawn) [HB-13b], in data set [1], the maximum absorption wavelength worked out at 621 nm and the molar extinction coefficient is 28,000 M^−1cm^−1. For the same compound, in data set [2], the singlet oxygen yield turned out to be 26%.
On to `COc1c2c3c4c(c(NC5CCC(C(=O)O)C5)c(=O)c5c(O)cc(OC)c(c6c(OC)cc(NC7CCC(C(=O)O)C7)c(c1=O)c63)c54)C=C(C)C2C(C)=O` (stereo not drawn) [HB-19d], for which, in data set [1], the maximum absorption wavelength was found to be 625 nm and the molar extinction coefficient is recorded as 24,000 M^−1cm^−1. Moreover, the singlet oxygen yield in data set [2] was determined as 20%.
In the case of `COc1c(O)c2c(=O)cc(OC)c3c4c(OC)cc(=O)c5c(NCC[N+]67CC[N+](C)(CC6)CC7)c(NCC[N+]67CC[N+](C)(CC6)CC7)c6c(c(c1C(C(C)=O)C(C)=C6)c23)c54` (stereo not drawn) [HB-41a], in data set [1], the maximum absorption wavelength is on record as 622 nm and the molar extinction coefficient is reported as 32,500 M^−1cm^−1. The compound also had a singlet oxygen yield in data set [2] of 31%.
Regarding `COCCOCCOCCOCCOCCOCCOCCC(=O)N1CCC(CNc2c(O)c3c(=O)cc(OC)c4c5c(OC)cc(=O)c6c(NCC7CCN(C(=O)CCOCCOCCOCCOCCOCCOCCOC)CC7)c(OC)c7c(c(c2C=C(C)C7C(C)=O)c34)c65)CC1` (stereo not drawn) [HB-31b-PEG6], in data set [1], the maximum absorption wavelength was found to be 622 nm and the molar extinction coefficient was 31,000 M^−1cm^−1. Moreover, the singlet oxygen yield in data set [2] came out at 38%.
As to `COc1c(O)c2c(=O)cc(OC)c3c4c(OC)cc(=O)c5c(NC6CCC(C(=O)O)C6)c(NC6CCC(C(=O)O)C6)c6c(c(c1C(C(C)=O)C(C)=C6)c23)c54` (stereo not drawn) [HB-19a], in data set [1], the maximum absorption wavelength is 621 nm and the molar extinction coefficient was 25,500 M^−1cm^−1. In data set [2], the singlet oxygen yield stood at 21%.
The like results for `COCCOCCOCCOCCOCCOCCOCCC(=O)OCCOCCNc1c(O)c2c(=O)cc(OC)c3c4c(OC)cc(=O)c5c(NCCOCCOC(=O)CCOCCOCCOCCOCCOCCOCCOC)c(OC)c6c(c(c1C=C(C)C6C(C)=O)c23)c54` (stereo not drawn) [HB-1b-PEG6] were, in that order, 622 nm, 30,000 M^−1cm^−1 and 32%.
For the compound `COc1c(NO)c2c(=O)cc(OC)c3c4c(OC)cc(=O)c5c(O)c(NO)c6c(c(c1CC(C)=C6)c23)c54` [HC-37b], in data set [1], the maximum absorption wavelength was 622 nm and the molar extinction coefficient is given as 31,500 M^−1cm^−1. In data set [2], this compound yielded a singlet oxygen yield of 31%.
Turning to `COCCOCCC(=O)OCCOCCNc1c(NCCOCCOC(=O)CCOCCOC)c2c(=O)cc(OC)c3c4c(OC)cc(=O)c5c(O)c(OC)c6c(c(c1C=C(C)C6C(C)=O)c23)c54` (stereo not drawn) [HB-1a-PEG1], in data set [1], the maximum absorption wavelength is 625 nm and the molar extinction coefficient is recorded as 31,000 M^−1cm^−1. The same compound came in with a singlet oxygen yield in data set [2] of 35%.
As for `COC(=O)C(CO)Nc1c(NC(CO)C(=O)OC)c2c(=O)cc(OC)c3c4c(OC)cc(=O)c5c(O)c(OC)c6c(c(c1C=C(C)C6C(C)=O)c23)c54` (stereo not drawn) [HB-24a], in data set [1], the maximum absorption wavelength amounted to 625 nm and the molar extinction coefficient was 20,500 M^−1cm^−1. In addition, the singlet oxygen yield in data set [2] is listed as 20%.
For the compound `COc1c(O)c2c(=O)cc(OC)c3c4c(OC)cc(=O)c5c(NCCCC(=O)O)c(NCCCC(=O)O)c6c(c(c1CC(C)=C6)c23)c54` [HC-8a], in data set [1], the maximum absorption wavelength is reported as 620 nm and the molar extinction coefficient is given as 28,500 M^−1cm^−1. The singlet oxygen yield in data set [2] stood at 26%.
On to `COCCOCCOCCOCCOCCOCCOCCOCCOCCOCCOCCOCCOC(=O)C1CCC(Nc2c3c4c5c(c(OC)c(=O)c6c(O)cc(OC)c(c7c(OC)cc(NC8CCC(C(=O)OCCOCCOCCOCCOCCOCCOCCOCCOCCOCCOCCOCCOC)C8)c(c2=O)c74)c65)C(C(C)=O)C(C)=C3)C1` (stereo not drawn) [HB-19c-PEG12], for which, in data set [1], the maximum absorption wavelength came to 636 nm and the molar extinction coefficient was 33,500 M^−1cm^−1. In data set [2], this compound displayed a singlet oxygen yield of 38%.
`COc1c2c3c4c(c(NCC(=O)O)c(=O)c5c(NCC(=O)O)cc(OC)c(c6c(OC)cc(O)c(c1=O)c63)c54)C=C(C)C2C(C)=O` (stereo not drawn) [HB-7c]: in data set [1], the maximum absorption wavelength is given as 618 nm and the molar extinction coefficient is reported as 27,500 M^−1cm^−1. In data set [2], this compound showed a singlet oxygen yield of 27%.
For the compound `COc1c(NCCCCCC(=O)O)c2c(=O)cc(OC)c3c4c(OC)cc(=O)c5c(O)c(NCCCCCC(=O)O)c6c(c(c1CC(C)=C6)c23)c54` [HC-9b], in data set [1], the maximum absorption wavelength is reported as 622 nm and the molar extinction coefficient is reported as 27,500 M^−1cm^−1. For the same compound, the singlet oxygen yield in data set [2] is recorded as 24%.
`COc1c(O)c2c(=O)cc(OC)c3c4c(OC)cc(=O)c5c(NCc6ccccn6)c(NCc6ccccn6)c6c(c(c1C(C(C)=O)C(C)=C6)c23)c54` (stereo not drawn) [HB-38a]: in data set [1], the maximum absorption wavelength is reported as 624 nm and the molar extinction coefficient is 19,000 M^−1cm^−1. The same compound displayed a singlet oxygen yield in data set [2] of 16%.
Regarding `COc1c2c3c4c(c(NCCOC(=O)N5CC(=O)NC(=O)C5)c(=O)c5c(NCCOC(=O)N6CC(=O)NC(=O)C6)cc(OC)c(c6c(OC)cc(O)c(c1=O)c63)c54)C=C(C)C2C(C)=O` (stereo not drawn) [HB-40c], in data set [1], the maximum absorption wavelength is 632 nm and the molar extinction coefficient is on record as 34,000 M^−1cm^−1. The same compound came in with a singlet oxygen yield in data set [2] of 40%.
For `CCCCCCNc1c(NCCCCCC)c2c(=O)cc(OC)c3c4c(OC)cc(=O)c5c(O)c(OC)c6c(c(c1C=C(C)C6)c23)c54` [HC-34a], in data set [1], the maximum absorption wavelength is given as 625 nm and the molar extinction coefficient was 31,500 M^−1cm^−1. In addition, in data set [2], the singlet oxygen yield turned out to be 30%.
Taken in the same sequence, the figures for `COc1c(NCCO)c2c(=O)cc(OC)c3c4c(OC)cc(=O)c5c(O)c(NCCO)c6c(c(c1C(C(C)=O)C(C)=C6)c23)c54` (stereo not drawn) [HB-2b] were 627 nm, 31.500 M⁻¹ cm⁻¹ and 25%.
As to `COc1c2c3c4c(c(NCCCC(=O)NCCCCCCS(=O)(=O)O)c(=O)c5c(NCCCC(=O)NCCCCCCS(=O)(=O)O)cc(OC)c(c6c(OC)cc(O)c(c1=O)c63)c54)C=C(C)C2` [HC-8c-NH—C6-SO3H], in data set [1], the maximum absorption wavelength was 632 nm and the molar extinction coefficient is reported as 33,500 M^−1cm^−1. Moreover, the singlet oxygen yield in data set [2] is reported as 35%.
As to `COCCOCCOCCOCCOCCOCCOC(=O)C1CCC(Nc2c(O)c3c(=O)cc(OC)c4c5c(OC)cc(=O)c6c(NC7CCC(C(=O)OCCOCCOCCOCCOCCOCCOC)CC7)c(OC)c7c(c(c2C=C(C)C7C(C)=O)c34)c65)CC1` (stereo not drawn) [HB-14b-PEG6], in data set [1], the maximum absorption wavelength was 624 nm and the molar extinction coefficient is 30,500 M^−1cm^−1. The compound also registered a singlet oxygen yield in data set [2] of 34%.
Taken in the same sequence, the figures for `COC(=O)C(CO)Nc1c2c3c4c(c(OC)c(=O)c5c(NC(CO)C(=O)OC)cc(OC)c(c6c(OC)cc(O)c(c1=O)c63)c54)C(C(C)=O)C(C)=C2` (stereo not drawn) [HB-24d] were 621 nm, 20,500 M^−1cm^−1 and 20%.
Take `COc1c2c3c4c(c(NO)c(=O)c5c(NO)cc(OC)c(c6c(OC)cc(O)c(c1=O)c63)c54)C=C(C)C2` [HC-37c]: in data set [1], the maximum absorption wavelength was found to be 624 nm and the molar extinction coefficient is reported as 34,000 M^−1cm^−1. The compound also registered a singlet oxygen yield in data set [2] of 36%.
Regarding `COc1c2c3c4c(c(NCCO)c(=O)c5c(O)cc(OC)c(c6c(OC)cc(NCCO)c(c1=O)c63)c54)C=C(C)C2C(C)=O` (stereo not drawn) [HB-2d], in data set [1], the maximum absorption wavelength is on record as 629 nm and the molar extinction coefficient is recorded as 30,000 M^−1cm^−1. In data set [2], this compound yielded a singlet oxygen yield of 26%.
The compound `COc1c(O)c2c(=O)cc(OC)c3c4c(OC)cc(=O)c5c(NCCO)c(NCCO)c6c(c(c1C(C(C)=O)C(C)=C6)c23)c54` (stereo not drawn) [HB-2a] returned a singlet oxygen yield in data set [2] of 28%.
As to `C=CC1=C(C)c2cc3[nH]c(cc4[nH]c(cc5nc(cc1n2)C(C)=C5C=C)c(C)c4CCC(=O)O)c(CCC(=O)O)c3C` [PpIX, reference compound], in data set [1], the maximum absorption wavelength is 570 nm and 630 nm; the molar extinction coefficient result is recorded as “less than 10000 M^−1cm^−1”.
